The values below come from the Kinase Knowledgebase extract (Sharma et al. 2016).

For this test, the target named is CDK2 (human) (UniProt P24941). The experiment in a line: Enzyme Assay. The note with it: concentration not given here.
Usually inhibition stands for the change of the read-out against control, counted positive when it falls. `Cc1ccc(C)c(OCC(=O)N2CCC(Nc3nc(N)c(C(=O)c4c(F)cccc4F)s3)CC2)c1`: the inhibition worked out at 26%.

In the case of `CC(=O)C(O)(C(=O)N1CCC(Nc2nc(N)c(C(=O)c3c(F)cccc3F)s2)CC1)c1ccccc1` (centres undefined), the inhibition came to 26%.

Take `N#Cc1ccc(NCC(=O)N2CCC(Nc3nc(N)c(C(=O)c4c(F)cccc4F)s3)CC2)cc1`: the inhibition turned out to be 22%.

Regarding `CC(=O)N(C)CC(=O)N1CCC(Nc2nc(N)c(C(=O)c3c(F)cccc3F)s2)CC1`, the inhibition is 40%.

In the case of `CC(=O)CCCC(=O)N1CCC(Nc2nc(N)c(C(=O)c3c(F)cccc3F)s2)CC1`, the inhibition came to 68%.

For `COc1cccc(CC(=O)N2CCC(Nc3nc(N)c(C(=O)c4c(F)cccc4F)s3)CC2)c1OC`, the inhibition came out at 70%.

Regarding `CC(=O)O[C@H](C(=O)N1CCC(Nc2nc(N)c(C(=O)c3c(F)cccc3F)s2)CC1)c1ccccc1`, the inhibition is 41%.

For `Nc1nc(NC2CCN(C(=O)c3ccc4ccccc4n3)CC2)sc1C(=O)c1c(F)cccc1F`, the inhibition was 9%.

As for `Cc1ccccc1CCC(=O)N1CCC(Nc2nc(N)c(C(=O)c3c(F)cccc3F)s2)CC1`, the inhibition was 48%.

Consider `Nc1ccc(C(=O)NCC(=O)N2CCC(Nc3nc(N)c(C(=O)c4c(F)cccc4F)s3)CC2)cc1`, for which the inhibition was 65%.

On to `CCCC/C=C/CC(=O)N1CCC(Nc2nc(N)c(C(=O)c3c(F)cccc3F)s2)CC1`, for which the inhibition came out at 22%.

With `Nc1nc(NC2CCN(C(=O)CCCCCc3ccccc3)CC2)sc1C(=O)c1c(F)cccc1F`, the inhibition turned out to be 12%.

Take `Nc1nc(NC2CCN(S(=O)(=O)c3ccc(Sc4ccncc4)cc3)CC2)sc1C(=O)c1c(F)cccc1F`: the inhibition is -25%.

With `COc1ccc(C(=O)N2CCC(Nc3nc(N)c(C(=O)c4c(F)cccc4F)s3)CC2)c(OC)n1`, the inhibition was 51%.

As for `COc1cc(C(O)C(=O)N2CCC(Nc3nc(N)c(C(=O)c4c(F)cccc4F)s3)CC2)ccc1O` (centres undefined), the inhibition stood at 26%.

Regarding `Nc1nc(NC2CCN(C(=O)COc3cccc(Cl)c3)CC2)sc1C(=O)c1c(F)cccc1F`, the inhibition was found to be 67%.

Consider `CC(C)[C@@H]1CC[C@@H](C)C[C@H]1OC(=O)N1CCC(Nc2nc(N)c(C(=O)c3c(F)cccc3F)s2)CC1`, for which the inhibition is -45%.

On to `C/C=C/C(=O)N1CCC(Nc2nc(N)c(C(=O)c3c(F)cccc3F)s2)CC1`, for which the inhibition is -9%.

Regarding `CN(C)c1ccccc1C(=O)N1CCC(Nc2nc(N)c(C(=O)c3c(F)cccc3F)s2)CC1`, the inhibition stood at 6%.

For the compound `Cn1cccc1C(=O)N1CCC(Nc2nc(N)c(C(=O)c3c(F)cccc3F)s2)CC1`, the inhibition was determined as 38%.

Turning to `CC(C)(C(=O)N1CCC(Nc2nc(N)c(C(=O)c3c(F)cccc3F)s2)CC1)c1ccccc1`, the inhibition was determined as 33%.

In the case of `Cc1cc(C)cc(CC(=O)N2CCC(Nc3nc(N)c(C(=O)c4c(F)cccc4F)s3)CC2)c1`, the inhibition came out at 75%.

Turning to `CC(C(=O)N1CCC(Nc2nc(N)c(C(=O)c3c(F)cccc3F)s2)CC1)c1ccc(Cl)cc1` (centres undefined), the inhibition stood at 48%.

Consider `CN(CC(=O)N1CCC(Nc2nc(N)c(C(=O)c3c(F)cccc3F)s2)CC1)C(=O)OC(C)(C)C`, for which the inhibition is 12%.

Regarding `Nc1nc(NC2CCN(C(=O)COc3ccc([N+](=O)[O-])cc3)CC2)sc1C(=O)c1c(F)cccc1F`, the inhibition turned out to be 60%.

Regarding `CC(C)(CO)C(=O)N1CCC(Nc2nc(N)c(C(=O)c3c(F)cccc3F)s2)CC1`, the inhibition was found to be 41%.

As for `CCCCCCCC(CC)C(=O)N1CCC(Nc2nc(N)c(C(=O)c3c(F)cccc3F)s2)CC1` (centres undefined), the inhibition is 25%.

For the compound `CCC(C)(C)C(=O)N1CCC(Nc2nc(N)c(C(=O)c3c(F)cccc3F)s2)CC1`, the inhibition is 32%.

Consider `Nc1nc(NC2CCN(C(=O)c3ccc(F)c4ccccc34)CC2)sc1C(=O)c1c(F)cccc1F`, for which the inhibition worked out at 30%.

Turning to `CC(CO)(CO)C(=O)N1CCC(Nc2nc(N)c(C(=O)c3c(F)cccc3F)s2)CC1`, the inhibition was determined as 17%.

Turning to `Nc1nc(NC2CCN(C(=O)CCC3CCCCC3=O)CC2)sc1C(=O)c1c(F)cccc1F` (centres undefined), the inhibition stood at 50%.

As to `CCN(CC)C(=O)N1CCC(Nc2nc(N)c(C(=O)c3c(F)cccc3F)s2)CC1`, the inhibition was -43%.

Consider `C/C=C/CCC(=O)N1CCC(Nc2nc(N)c(C(=O)c3c(F)cccc3F)s2)CC1`, for which the inhibition came out at 71%.

As to `CC(=O)Oc1c(C)cccc1C(=O)N1CCC(Nc2nc(N)c(C(=O)c3c(F)cccc3F)s2)CC1`, the inhibition turned out to be 50%.

As to `Cc1c(S(=O)(=O)c2ccc(Cl)cc2)csc1C(=O)N1CCC(Nc2nc(N)c(C(=O)c3c(F)cccc3F)s2)CC1`, the inhibition was -7%.

On to `Nc1nc(NC2CCN(C(=O)c3cnccn3)CC2)sc1C(=O)c1c(F)cccc1F`, for which the inhibition amounted to 58%.

Turning to `CCC(C)(O)CC(=O)N1CCC(Nc2nc(N)c(C(=O)c3c(F)cccc3F)s2)CC1` (centres undefined), the inhibition stood at 47%.

Regarding `Nc1nc(NC2CCN(C(=O)Cc3cc(F)cc(F)c3F)CC2)sc1C(=O)c1c(F)cccc1F`, the inhibition stood at 44%.

Consider `Cc1ccc(C(C)C)c(C(=O)N2CCC(Nc3nc(N)c(C(=O)c4c(F)cccc4F)s3)CC2)c1O`, for which the inhibition worked out at 30%.

In the case of `COC1CCC(C(=O)N2CCC(Nc3nc(N)c(C(=O)c4c(F)cccc4F)s3)CC2)CC1` (centres undefined), the inhibition was determined as 54%.

With `CO[C@H](C(=O)N1CCC(Nc2nc(N)c(C(=O)c3c(F)cccc3F)s2)CC1)c1ccccc1`, the inhibition was 50%.

Take `Nc1nc(NC2CCN(C(=O)c3nc4ccccc4nc3O)CC2)sc1C(=O)c1c(F)cccc1F`: the inhibition is 12%.

For `Cc1ccc2[nH]c(C(=O)N3CCC(Nc4nc(N)c(C(=O)c5c(F)cccc5F)s4)CC3)cc2c1`, the inhibition was 54%.

Regarding `CCOCCC(=O)N1CCC(Nc2nc(N)c(C(=O)c3c(F)cccc3F)s2)CC1`, the inhibition was found to be 18%.

`C=CCSc1ncccc1C(=O)N1CCC(Nc2nc(N)c(C(=O)c3c(F)cccc3F)s2)CC1`: the inhibition stood at 48%.

Regarding `CC1(C)C2CC[C@]1(CS(=O)(=O)N1CCC(Nc3nc(N)c(C(=O)c4c(F)cccc4F)s3)CC1)C(=O)C2`, the inhibition is -1%.

On to `CC(=O)c1ccc(O)c(C(=O)N2CCC(Nc3nc(N)c(C(=O)c4c(F)cccc4F)s3)CC2)c1`, for which the inhibition was found to be 9%.

On to `Nc1nc(NC2CCN(C(=O)/C=C/c3cc(F)ccc3F)CC2)sc1C(=O)c1c(F)cccc1F`, for which the inhibition was 81%.

For the compound `CCCCCC(=O)N1CCC(Nc2nc(N)c(C(=O)c3c(F)cccc3F)s2)CC1`, the inhibition came out at 36%.

Consider `Nc1nc(NC2CCN(C(=O)CN3C(=O)CSC3=S)CC2)sc1C(=O)c1c(F)cccc1F`, for which the inhibition was found to be 64%.

In the case of `Nc1nc(NC2CCN(C(=O)COc3cccc(C=O)c3)CC2)sc1C(=O)c1c(F)cccc1F`, the inhibition was determined as 38%.

For the compound `C=CCc1ccccc1OCC(=O)N1CCC(Nc2nc(N)c(C(=O)c3c(F)cccc3F)s2)CC1`, the inhibition was 76%.

Turning to `CCCCOc1ccc(C(C)(C)CC)cc1S(=O)(=O)N1CCC(Nc2nc(N)c(C(=O)c3c(F)cccc3F)s2)CC1`, the inhibition is -30%.

As for `CC1(C(=O)N2CCC(Nc3nc(N)c(C(=O)c4c(F)cccc4F)s3)CC2)CCCCC1`, the inhibition was -5%.

Regarding `CC(C)C(C)C(=O)N1CCC(Nc2nc(N)c(C(=O)c3c(F)cccc3F)s2)CC1` (centres undefined), the inhibition is 35%.

`Cc1cc(C(=O)N2CCC(Nc3nc(N)c(C(=O)c4c(F)cccc4F)s3)CC2)n(C(C)(C)C)n1`: the inhibition was determined as 59%.

As to `Nc1nc(NC2CCN(C(=O)C(O)c3cccc(O)c3)CC2)sc1C(=O)c1c(F)cccc1F` (centres undefined), the inhibition was 47%.

With `Cc1ccc(CCC(=O)N2CCC(Nc3nc(N)c(C(=O)c4c(F)cccc4F)s3)CC2)cc1`, the inhibition came to 36%.

`COc1cccc(OCC(=O)N2CCC(Nc3nc(N)c(C(=O)c4c(F)cccc4F)s3)CC2)c1`: the inhibition is 61%.

In the case of `C[C@H]1CC[C@H](C(=O)N2CCC(Nc3nc(N)c(C(=O)c4c(F)cccc4F)s3)CC2)CC1`, the inhibition is 65%.

Consider `CCCC(CC)CC(=O)N1CCC(Nc2nc(N)c(C(=O)c3c(F)cccc3F)s2)CC1` (centres undefined), for which the inhibition was found to be 31%.

Take `CCC/C=C/CC(=O)N1CCC(Nc2nc(N)c(C(=O)c3c(F)cccc3F)s2)CC1`: the inhibition is 49%.

Take `Nc1nc(NC2CCN(C(=O)C3(c4ccccc4)CC3)CC2)sc1C(=O)c1c(F)cccc1F`: the inhibition is -2%.

As to `COC1CCCC(C(=O)N2CCC(Nc3nc(N)c(C(=O)c4c(F)cccc4F)s3)CC2)C1` (centres undefined), the inhibition was determined as 63%.

Take `CC(=O)O[C@@H](C(=O)N1CCC(Nc2nc(N)c(C(=O)c3c(F)cccc3F)s2)CC1)c1ccccc1`: the inhibition came out at 25%.

Consider `Nc1nc(NC2CCN(C(=O)/C=C/c3ccccc3F)CC2)sc1C(=O)c1c(F)cccc1F`, for which the inhibition was 71%.

Take `Nc1nc(NC2CCN(C(=O)c3ccc4[nH]nnc4c3)CC2)sc1C(=O)c1c(F)cccc1F`: the inhibition was 49%.

On to `Nc1nc(NC2CCN(S(=O)(=O)c3ccc(O)c(C(=O)O)c3)CC2)sc1C(=O)c1c(F)cccc1F`, for which the inhibition is -16%.

For `Nc1nc(NC2CCN(S(=O)(=O)c3ccc(CNC(=O)c4ccc(O)cc4)s3)CC2)sc1C(=O)c1c(F)cccc1F`, the inhibition turned out to be 55%.

`CN1CCC[C@H]1C(=O)N1CCC(Nc2nc(N)c(C(=O)c3c(F)cccc3F)s2)CC1`: the inhibition is 39%.

Take `COC(=O)[C@H]1CC=CC[C@H]1C(=O)N1CCC(Nc2nc(N)c(C(=O)c3c(F)cccc3F)s2)CC1`: the inhibition worked out at 22%.

Take `Cc1ccc(/C=C/C(=O)N2CCC(Nc3nc(N)c(C(=O)c4c(F)cccc4F)s3)CC2)c(C)c1`: the inhibition was found to be 31%.

On to `COc1cc(C(=O)N2CCC(Nc3nc(N)c(C(=O)c4c(F)cccc4F)s3)CC2)cc(OC)c1C`, for which the inhibition was determined as 58%.

`Cc1ccc(C2(C(=O)N3CCC(Nc4nc(N)c(C(=O)c5c(F)cccc5F)s4)CC3)CC2)cc1`: the inhibition was determined as 41%.

Take `Nc1nc(NC2CCN(C(=O)Cc3ccc(Cl)cc3)CC2)sc1C(=O)c1c(F)cccc1F`: the inhibition was 58%.

For the compound `Nc1nc(NC2CCN(S(=O)(=O)c3c(Cl)cc(C(F)(F)F)cc3Cl)CC2)sc1C(=O)c1c(F)cccc1F`, the inhibition is -23%.

With `Nc1nc(NC2CCN(C(=O)C3CC(=O)c4ccccc43)CC2)sc1C(=O)c1c(F)cccc1F` (centres undefined), the inhibition came to 79%.

With `Cc1ccc(C)c(/C=C/C(=O)N2CCC(Nc3nc(N)c(C(=O)c4c(F)cccc4F)s3)CC2)c1`, the inhibition turned out to be 34%.

With `Cc1ccc(OCC(=O)N2CCC(Nc3nc(N)c(C(=O)c4c(F)cccc4F)s3)CC2)cc1C`, the inhibition is 52%.
